Data set [1] concerns BALB/c mice. Kind of data set: GSK-J4 in glucocorticoid (MPS)-treated young BALB/c mice: body weight, tail length, bone loss (μCT), angiogenesis and osteogenesis. The protocol: FIGS. 10A-10B. […] Body weight (10A) and Tail length (10B) were monitored at 2, 3, and 4 weeks after treatment. FIGS. 11A-11F. […] (11A) Representative μCT images of distal femur. Quantitative analyses of Femur length (11B), Trabecular bone volume fraction (BV/TV) (11C), trabecular number (Tb.N) (11D), trabecular thickness (Tb.Th) (11E), and trabecular separation (Tb.Sp) (11F). […] FIGS. 12A-12F. […] (12A-B) Double-immunofluorescence staining of femur sections was performed using antibodies against nestin (green) and H3K27me3 (red) (12A). Quantification of the percentage of nestin^+ cells that express H3K27me3 in the primary spongiosa (12B). Immunofluorescence staining of femur sections using antibody against osterix (Osx) (12C). Quantitative analysis of Osx^+ cells in the primary spongiosa (12D). Double-immunofluorescence staining of femur sections was performed using antibodies against CD31 (green) and endomucin (Emcn) (red) (12E). […] DAPI stains nuclei blue. Seven mice per group. GP, growth plate. PS, primary spongiosa. Mice femora were dissected, fixed overnight in 70% ethanol, and analyzed by high-resolution μCT (Skyscan 1172, Bruker MicroCT, Kontich, Belgium). We used NRecon image reconstruction software, version 1.6, (Bruker MicroCT), CTAn data-analysis software, version 1.9 (Bruker MicroCT), and CTVol 3-dimensional model visualization software, version 2.0, (Bruker MicroCT) to analyze parameters of the trabecular bone in the metaphysis and cortical bone in the mid-diaphysis. The scanner was set at 50 kVp, […]. Cross-sectional images of the distal femur were used to perform 3-dimensional histomorphometric analysis of trabecular bone. The sample area selected for analyses was a 2-mm length of the metaphyseal secondary spongiosa, originating 1.0 mm below the epiphyseal growth plate and extending caudally. Cortical morphometry was analyzed within a 600-μm long section at mid-diaphysis of the femur and included measurements of average thickness and cross-sectional area. […] Nuclei were counterstained with DAPI (Sigma).

In data set [2] the test system is childhood cancer diffuse intrinsic pontine glioma. The settings on record: preclinical studies; cited from earlier work.
The subject of data set [3] is BALB/c mice. The settings on record: MPS daily for 2 weeks; compared to controls.
Experimental: Four-week-old BALB/c mice were treated with methylprednisolone (MPS) or vehicle daily for 2 weeks. (8A) A schematic illustration of the steps to isolate CD144^+ vascular endothelial cells from femoral metaphyses. […] (8D-8G) Quantitative RT-PCR analysis of ki67 (8D) p16^INK4a (8E), p53 (8F), and p21^CIP1 (8G) expression in the sorted CD144^+ cells. n=3, Data are represented as mean±s.e.m. *p<0.01 as determined by Student's t-tests.
Data set [4] deals with Nestin-GFP mice. Kind of data set: Prednisolone treatment of early pubertal Nestin-GFP mice: cellular senescence / nestin expression in femoral primary spongiosa. It is filed as in vivo, mouse. On the procedure: (§1) FIGS. 4A-4L. Cellular Senescence in Primary Spongiosa of Long Bone is Decelerated in Growth Hormone (GH)-Treated Mice and Accelerated in Prednisolone-Treated Mice. (4A-4F) Four week-old Nestin-GFP mice were treated with recombinant mouse-GH (5 mg/kg·B·W.) or Vehicle by daily intraperitoneal injection for 4 weeks. Immunofluorescence staining of femur sections were performed using antibodies against GFP (green) (4A) or Ki67 (red) (4E). Images in upper panels in (4A) and (4E) are lower power with boxes outlining the area of higher power in lower panels. Quantification of the number of GFP+ (4B) or Ki67+ (4F) cells in femoral primary spongiosa. […] (4G-4L) Two-week-old Nestin-GFP mice were treated with prednisolone (10 mg/m^2/day) or Vehicle by daily intraperitoneal injection for 2 weeks. Immunofluorescence staining of femur sections were performed using antibodies against GFP (green) (4G) or Ki67 (red) (4K). Images in upper panels in (4G) and (4K) are lower power with boxes outlining the area of higher power in lower panels. Quantification of the number of GFP+ (4H) or Ki67+ (4L) cells in femoral primary spongiosa. […] Five mice per group. […] GP, growth plate.
(§2) For flow cytometric analysis and sorting of CD45-GFP− and CD45-GFP+ mesenchymal progenitor cells (MPCs) from femoral metaphysis, we dissected the femora free of soft tissues from Nestin-GFP mice. The epiphysis was removed and only the 3-mm-long metaphysis regions were processed. The bone was then digested with a protease solution (2 mg/mL collagenase A and 2.5 mg/mL trypsin in phosphate buffered saline [PBS]) for 20 minutes to remove the periosteum and periosteal progenitors (step I). […]
One of the major causes of secondary osteoporosis in children is the use of glucocorticoids for treatment of underlying chronic medical problems, such as autoimmune or inflammatory disorders. […] We thus assessed whether glucocorticoid-treated early pubertal mice display premature cellular senescence in primary spongiosa by injecting mice daily with prednisolone from age 2 weeks to 4 weeks.

Data set [5] has as its system Nestin-GFP mice. Kind of data set: Growth hormone treatment of pubertal Nestin-GFP mice: cellular senescence / nestin expression in femoral primary spongiosa. It counts as in vivo, mouse. The protocol:
as §1
as §2, with “I). The bones were cut into small pieces and digested in the protease solution for another 1 hour (C, step II).” for “I).”
We tested whether the progression of the cellular senescence in primary spongiosa of long bone, as indicated by loss of nestin expression, is associated with bone growth/accrual. […] We assessed changes in nestin expression in the femoral primary spongiosa in pubertal mice after administration of recombinant GH. […]

Where [6] appears, read: MPS plus GSK-J4 10 mg/kg b.w. daily for 4 weeks, compared to MPS alone and to controls.
The mark [7] stands for this setting: summary statement, glucocorticoid-treated mice.

“Also recorded” adds a separate entry of the source.

Consider `CCOC(=O)CCNc1cc(N2CCc3ccccc3CC2)nc(-c2ccccn2)n1` [GSK-J4, N-[2-(2-Pyridinyl)-6-(1,2,4,5-tetrahydro-3H-3-benzazepin-3-yl)-4-pyrimidinyl]-β-alanine ethyl ester], for which the “bone loss phenotype induced by MPS (μCT of distal femur: femur length, BV/TV, Tb.N, Tb.Th, Tb.Sp)” value in the data set with BALB/c mice [1] (MPS plus GSK-J4 10 mg/kg b.w. daily for 4 weeks, 10 mg/kg) is recorded as “at least partially reversed; also recorded: rescued”. Also, in the data set on BALB/c mice [1] (setting [6]), the “angiogenesis in femoral primary spongiosa (CD31 / Emcn fluorescence intensities)” value was “greatly improve” and the “osteogenesis in femoral primary spongiosa (Osx+ cells)” value is given as “greatly improve”. Moreover, in the data set on BALB/c mice [1] (concurrent treatment, MPS plus GSK-J4 10 mg/kg b.w. daily, 2, 3 and 4 weeks), the “MPS-induced shortening of tail length” value is “abolished”. For the same molecule, the glucocorticoid-induced growth retardation entry in the data set on BALB/c mice [1] (summary statement) is listed as “rescued”. Also, in the data set on BALB/c mice [1] (setting [7]), the H3K27 methylation entry was “elevated” and the “early onset cellular senescence” value was “blocked”. Further, the “growth of childhood cancer diffuse intrinsic pontine glioma” value in data set [2] was “effectively inhibit”.
Take `C[C@H]1C[C@@H]2[C@H]([C@@H](O)C[C@@]3(C)[C@H]2CC[C@]3(O)C(=O)CO)[C@@]2(C)C=CC(=O)C=C12` [MPS, methylprednisolone]: the tail length result with BALB/c mice [1] (MPS alone daily, 2, 3 and 4 weeks, compared with controls) is reported as “significantly shortened”. The body weight result with BALB/c mice [1] (MPS alone daily, monitored at 2, 3 and 4 weeks after treatment) is given as “no significant effect”. In the data set with BALB/c mice [3], the “ki67 expression in sorted CD144+ cells (quantitative RT-PCR)” value is “less”, the “p16^INK4a expression in sorted CD144+ cells (quantitative RT-PCR)” value is recorded as “increased”, the “p21^CIP1 expression in sorted CD144+ cells (quantitative RT-PCR)” value is “increased” and the “p53 expression in sorted CD144+ cells (quantitative RT-PCR)” value is listed as “increased”.
For the molecule `C[C@]12C=CC(=O)C=C1CC[C@@H]1[C@@H]2[C@@H](O)C[C@@]2(C)[C@H]1CC[C@]2(O)C(=O)CO` [prednisolone], the “senescence of the cells in primary spongiosa” value with Nestin-GFP mice [4] (mice treated with prednisolone) is “accelerated”. Also, in the data set on Nestin-GFP mice [4] (prednisolone 10 mg/m^2/day daily i.p. for 2 weeks, vs vehicle), the “Ki67+ proliferative cells in femoral primary spongiosa” value is given as “reduced”. In addition, the “number of Nestin-GFP+ cells in femoral primary spongiosa (immunofluorescence staining and flow cytometry)” value in the data set on Nestin-GFP mice [4] (prednisolone 10 mg/m^2/day daily i.p. from age 2 weeks to 4 weeks, relative to vehicle-treated mice) is “significantly reduced”.

B1: GH: recombinant mouse growth hormone (protein, UniProt P06880 27-216, looked up)
Somatotropin: FPAMPLSSLFSNAVLRAQHLHQLAADTYKEFERAYIPEGQRYSIQNAQAAFCFSETIPAPTGKEEAQQRTDMELLRFSLLLIQSWLGPVQFLSRIFTNSLMFGTSDRVYEKLKDLEEGIQALMQELEDGSPRVGQILKQTYDKFDANMRSDDALLKNYGLLSCFKKDLHKAETYLRVMKCRRFVESSCAF
Regarding B1, the “percentage of Ki67+ proliferative cells in primary spongiosa” value in the data set with Nestin-GFP mice [5] (GH 5 mg/kg daily i.p. for 4 weeks, relative to vehicle-treated mice) is “higher”. The “senescence of the cells in primary spongiosa” value in the data set with Nestin-GFP mice [5] (mice treated with growth hormone) was “reduced”. The “Nestin-GFP+ cells in primary spongiosa (immunofluorescence staining)” value with Nestin-GFP mice [5] (recombinant mouse-GH 5 mg/kg B.W. daily intraperitoneal injection for 4 weeks from 4 weeks of age, vs vehicle-treated mice) is reported as “significantly increased”.
